Earlier results, collected in patent EP4620459A1, “METFORMIN HYDROCHLORIDE ENTERIC-COATED TABLET” (Yayan (Tianjin) Biomedical Technology Center (Limited …, priority 2023, dated 2025).

Conditions: nausea, abdominal pain, abdominal discomfort, etc.

For `CN(C)C(=N)N=C(N)N` [metformin], the “incidence of gastrointestinal adverse reactions” value is listed as 20-30%.
